The source made the active and inactive calls. No cut-off for these calls is given here.
Tests used:
[1] = Binding affinity to Bcl2 G-quadraplex DNA (unknown origin) assessed as melting temprature at 2 uM by circular dichroism spectroscopic analysis in the presence of KCl and NaCl
[2] = Binding affinity to Bcl2 G-quadraplex DNA (unknown origin) assessed as melting temprature at 5 uM by circular dichroism spectroscopic analysis in the presence of KCl and NaCl
HEp-2 [3] = assay: Binding affinity to Bcl2 G-quadraplex DNA in human Hep2 cells assessed as reduction in Bcl-2 expression co-transfected in pRL-TK plasmid vector after 48 hrs by dual-luciferase reporter assay; type: cell-based
[4] = Binding affinity to duplex ds20 DNA (unknown origin) assessed as binding constant at 8 uM by Stern-Volmer plot analysis in the presence of KCl and NaCl
[5] = Ratio of binding affinity to Bcl2 G-quadruplex DNA (unknown origin) to binding affinity to duplex ds20 DNA (unknown origin)
Homo sapiens = species: Homo sapiens; assay: Binding affinity to duplex ds26 DNA (unknown origin) assessed as melting temprature at 12 uM by circular dichroism spectroscopic analysis in the presence of KCl and NaCl
HEp-2 [6] = assay: Antiproliferative activity against human Hep2 cells measured up to 10 uM after 48 hrs by MTT assay; type: functional, cell-based
HEp-2 [7] = assay: Binding affinity to Bcl2 G-quadraplex DNA in human Hep2 cells assessed as reduction in Bcl-2 gene levels by real-time PCR method; type: cell-based
[8] = Ratio of binding affinity to Bcl2 G-quadruplex DNA (unknown origin) to binding affinity to duplex ds26 DNA (unknown origin)
[9] = Binding affinity to duplex ds26 DNA (unknown origin) assessed as binding constant at 8 uM by Stern-Volmer plot analysis in the presence of KCl and NaCl
[10] = Binding affinity to Bcl2 G-quadraplex DNA (unknown origin) assessed as binding constant at 8 uM by Stern-Volmer plot analysis in the presence of KCl and NaCl

With `CN(C)CCOc1cc(NC(=O)c2cc(OCCN)cc(C(=O)Nc3cc(OCCN(C)C)c4ccccc4n3)n2)nc2ccccc12` the Tm [1] was 56 °C, the Tm [2] was 71 °C and the Activity (HEp-2 [3]) was “Dose-dependent effect”. It also gave a Ka [4] of 0.28 ×10⁵ L/mol, a Ratio [5] of 6.5 and a Tm (Homo sapiens) of 68 °C. For the same molecule, the Activity (HEp-2 [6]) was “Active”, the Activity (HEp-2 [7]) was “Active” and the Ratio [8] was 6.5. The Ka [9] was 0.66 ×10⁵ L/mol and the Ka [10] was 4.29 ×10⁵ L/mol.
In the case of `NCCOc1cc(C(=O)Nc2cc(OCCN)c3ccccc3n2)nc(C(=O)Nc2cc(OCCN)c3ccccc3n2)c1`, the Ka [4] is reported as 1.36 ×10⁵ L/mol, the Ratio [5] is reported as 4 and the Ratio [8] is reported as 4. For the same molecule, the Ka [9] was 1.52 ×10⁵ L/mol and the Ka [10] was 6.97 ×10⁵ L/mol.

Reference: ChEMBL document CHEMBL3784978, “Stabilization of G-quadruplex DNA and inhibition of Bcl-2 expression by a pyridostatin analog” (Bioorg Med Chem Lett, 2016)
